This is an account of results in publication PMC11129186, “New Improved cGMP Analogues to Target Rod Photoreceptor Degeneration” (Journal of Medicinal Chemistry, 2024).

Values joined by “and” are separate entries in the source; they are usually repeats but may differ in a detail not shown here. Equal entries are not always repeated. Where two headings read alike, the source gives them in different places.

Data set [1] can be described thus: Aqueous solubility at room temperature (phase solubility, HPLC). It counts as physicochemical. How it is done:
Physicochemical properties of dithio-CN03 were characterized and compared to CN03. […] Salt forms of CN03, for example, were prepared varying in aqueous solubility as low as 0.01 mg/mL.[12] To facilitate future development of reactive crystallizations toward other salt forms, a temperature-dependent solubility was also measured between 20 and 75 °C. The resulting solubility curve can be found in the Supporting Information (Figure S38).
The solubility of dithio-CN03 was measured at room temperature and in quadruplicate by phase solubility techniques. Saturated mixtures of the compound were prepared by adding excess starting material to 4 mL vials containing 2 mL of deionized water. They were allowed to equilibrate for 24 h using mild agitation before recording the pH. The clear solution was separated from the solids by filtration with a Cytiva Whatman Mini-Uniprep polypropylene 0.45 μm filter device and diluted to an appropriate analytical concentration where needed. The sample was then analyzed by HPLC, and the solubility was determined by integrating the area of the peak of interest against a standard curve. The solids were also analyzed by XRPD to record the crystal modification obtained.
Solubility data for dithio-CN03
Table S1: Aqueous solubility at room temperature
Sample mg / mL pH of mixture […]
(1 picture or pasted object on this page, not shown here)

The nature of data set [2]: Thermal analysis (DSC and TG). The class given is physicochemical. The conditions noted are these: crystal modification I; scan 10 °C/min. How it is done:
Finally, we performed thermal analyses on crystal modification I by using differential scanning calorimetry (DSC) and thermogravimetry (TG), both of which confirmed a behavior analogous to that of CN03. There were no observable melting points. Instead, there was only a sharp exothermic event on DSC at 170 °C associated with significant mass loss on TG, which we interpreted as a thermal decomposition of the compound (Figure 1B). It should be noted that decomposition peaks on DSC and TG are not indicative of physical stability (e.g., melting point, and solubility). Since the material was crystalline, it was considered to own a melting point at a higher temperature than this decomposition.
DSC analyses were carried out on a Mettler DSC822e, equipped with a Thermo Haake EK45/MT cooler. The samples were weighed into a 40 μL Al-cup, which was then closed with a pierced lid. The sample was scanned from 25 to 300 °C, with a scan rate of 10 °C/min.
TG was performed on a Mettler TGA/SDTA 851e, equipped with a Haake C50P cooler. Alternatively, thermogravimetric and DSC analyses were carried out simultaneously in a Mettler Toledo TGA/DSC 3+. The samples were weighed into a 100 μL Al-cup, and this was flushed with dry nitrogen gas during the analysis. The sample was scanned from 25 to 300 °C, with a scan rate of 10 °C/min.

The next data set relates to 661W-A11 cells. The experiment in a line: Toxicity assay, MTT viability of unstressed cells. To be noted: 1 μM to 1 mM, 48 h; dithio-CN03 in DMSO, compared to DMSO vehicle. It counts as cell-based, mouse. The source says:
With the aim of developing a new treatment for RP, we evaluated possible toxic effects of the cGMP analogues on a retinal cell line. The target of the treatment for RP is rod photoreceptors, the cells that die due to increased intracellular levels of cGMP during the progression of retinal degeneration. […] Furthermore, this cell line can be stressed with zaprinast, a phosphodiesterase 6 (PDE6) inhibitor, to increase intracellular cGMP and activate cell death pathways, as found in the RP mutant retina. […] A toxicity test was set up by exposing 661W-A11 cells to increasing doses of the four new TEA salts of CN03: CN03, SP-CN03, oxo-CN03, and dithio-CN03 (Figure 2). Viability of the cells was assessed by an MTT assay that measures cell metabolic activity. […]
661W-A11 cells were seeded in 96-well plates at a density of 6000 cells/well, and the following day they were treated with scaling concentrations of either CN03-Na^+, CN03, SP-CN03, oxo-CN03, or dithio-CN03 for 48 h. […] Cell viability was assessed with MTT (3-(4,5-dimethylthiazol-2-yl)-2,5-diphenyl tetrazolium bromide, Sigma). […] The crystals were shaken for 10 min to dissolve and the optical density (OD) was measured at a wavelength of 570 nm.

Data set [3] concerns primary photoreceptor cells derived from rd1 mutant mice. Kind of data set: Cell death TUNEL assay in primary photoreceptors. The conditions noted are these: 50 μM added at day 10 of differentiation, read at day 11. The class given is cell-based, mouse. An excerpt: To address this possible limitation of the RP model, we tested the CN03 analogues in another RP in vitro cellular model, previously validated for the analysis of cGMP analogues.[10] This model is based on the primary cell culture and differentiation of cells derived from rd1 mutant eyes. The rd1 mouse is one of the best characterized murine models of RP. It carries a mutation in the Phosphodiesterase 6b (Pde6b) gene. Lack of PDE6 function causes high intracellular levels of cGMP in rod photoreceptor cells.[26],[9] […] CN03-Na^+, SP-CN03, and dithio-CN03 were administered to the culture of rd1 mutant cells at a concentration of 50 μM at day 10 of differentiation. The concentration of the compounds and the time of treatment were chosen based on the previously published study in which cGMP inhibitory analogues were tested in this type of primary photoreceptors.[10] Cell death was then analyzed by the TUNEL assay at day 11 of in vitro differentiation.
rd1 mutant mice were purchased from Charles River Italy. The protocol was approved by the Ethical Committee of the University of Modena and Reggio Emilia and by the Italian Ministero della Salute (150/2021-PR). Primary neurospheres were derived from the eyes of rd1 mutant mice, as previously reported.[32] Retinal stem cells in neurospheres were differentiated into photoreceptors, as previously reported.[10]rd1 mutant photoreceptor cells underwent spontaneous cell death after differentiation for 11 days. At day 10, 50 μM of either CN03-Na^+ or SP-CN03 or dithio-CN03 were added to the cells in culture and cell death was assessed 1 day later (day 11 of differentiation) by TUNEL assay (see above for detailed procedure).

Where [4] appears, read: saturated aqueous mixture, room temperature.

As for `CCN(CC)CC.O=c1c2nc(Br)n([C@@H]3O[C@@H]4COP(=S)(S)O[C@H]4[C@H]3O)c2nc2[nH]c(-c3ccccc3)cn12` (stereo partly drawn) [dithio-CN03, Triethylammonium 8-Bromo-β-phenyl-1,N^2-ethenoguanosine-3′,5′-cyclicmonophosphorodithioate], the “solubility compared to CN03” value in data set [1] (aqueous) was “lower solubility”. Further, the solubility – broadly, the dissolved amount per volume that the medium holds – at 24 h in data set [1] (deionized water, pH 5.6, deionized H2O, room temperature, corresponds to crystal modification II (trihydrate), read-out: aqueous solubility) turned out to be 1170 µg/mL; in data set [1] (deionized water, pH 5.6, deionized H2O, room temperature, read-out: aqueous solubility), 1800 µM; in data set [1] (deionized water, water, thermodynamic from solid, room temperature, deionized water, 24 h equilibration, read-out: aqueous solubility, single samples 1-4 (Table S1)), 1160 µg/mL. Moreover, the “aqueous solubility, single samples 1-4 (Table S1)” value in data set [1] (room temperature, deionized water, 24 h equilibration) is 1198 µg/mL and 1160 µg/mL and 1169 µg/mL. In addition, the “pH of mixture, Average (Table S1)” value in data set [1] (setting [4]) came to 5.6. In addition, the “pH of mixture, single samples 1-4 (Table S1)” value in data set [1] (setting [4]) is 4.7 and 5.6 and 5.9 and 6.3. Besides, the “exothermic event on DSC with mass loss on TG, interpreted as thermal decomposition” value in data set [2] was found to be 170 °C. In addition, in the data set with 661W-A11 cells, the “toxicity (cell viability, MTT)” value is on record as “lowest toxicity”. Also, the “neuroprotective effect, cell death (TUNEL)” value in data set [3] is listed as “significantly better neuroprotective activity”.
